Reference: patent publication US20240270715A1, “INHIBITORS OF TRANSGLUTAMINASES” (ZEDIRA GMBH, priority 2021, published 2024)

Assays:
[1] = target: T1, recombinant human transglutaminase 2 (Homo sapiens, UniProt P21980); assay: Transglutaminase assay: incorporation of dansylcadaverine into dimethylcasein (DCC-assay); format: biochemical; settings: recombinant human TG2 10 nM, dansylcadaverine/dimethylcasein; read-out: IC50 TG2
T1 sequence (P21980 1-687): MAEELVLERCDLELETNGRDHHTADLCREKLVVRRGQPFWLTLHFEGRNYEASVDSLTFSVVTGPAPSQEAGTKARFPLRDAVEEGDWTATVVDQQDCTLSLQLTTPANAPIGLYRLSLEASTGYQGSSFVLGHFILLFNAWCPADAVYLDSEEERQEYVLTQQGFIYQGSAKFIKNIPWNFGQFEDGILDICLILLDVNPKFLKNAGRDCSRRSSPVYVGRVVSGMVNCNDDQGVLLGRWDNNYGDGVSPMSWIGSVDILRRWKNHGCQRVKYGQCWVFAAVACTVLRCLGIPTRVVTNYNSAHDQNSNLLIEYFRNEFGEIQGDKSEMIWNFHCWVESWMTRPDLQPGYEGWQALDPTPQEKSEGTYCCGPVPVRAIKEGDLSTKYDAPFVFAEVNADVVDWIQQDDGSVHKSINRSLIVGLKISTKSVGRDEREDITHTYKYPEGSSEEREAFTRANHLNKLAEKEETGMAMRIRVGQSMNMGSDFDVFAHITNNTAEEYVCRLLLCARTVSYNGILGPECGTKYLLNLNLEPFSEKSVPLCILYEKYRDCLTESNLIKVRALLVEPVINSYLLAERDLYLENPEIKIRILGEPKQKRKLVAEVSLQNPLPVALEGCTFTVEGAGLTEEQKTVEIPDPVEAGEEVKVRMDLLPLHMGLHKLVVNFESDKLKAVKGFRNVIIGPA
Outline: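 Recombinant human TG2 (10 nM final) incorporates dansylcadaverine (16.7 μM) into N,N-dimethylcasein (4 μM) in Tris-HCl buffer, pH 8.0, with 10 mM CaCl2 and 10 mM glutathione. Fluorescence (λex 330, λem 500 nm) followed 30 min. The slope between 20–30 min gives activity versus DMSO control, and IC50 comes from the concentration–activity plot.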

[2] = Log D by shake flask method (octanol / PBS pH 7.4, HPLC); format: physicochemical; settings: octanol / PBS pH 7.4, shake flask; read-out: logD
Outline: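 Log D is derived by HPLC measurement of how the compound distributes between octanol and pH 7.4 phosphate-buffered saline in a shake flask.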

[3] = Caco-2 permeability assay (CacoReady kit); format: in vitro ADME; settings: human
Outline: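 Intestinal permeability modelled with kit-supplied Caco-2 barriers, run as the maker specifies; each compound reported as Papp.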

Row | Compound | IC50 [1] [nM] | logD [2] | Papp [3] [×10⁻⁶ cm/s]
1 | CCNC(=O)C(=O)CC[C@H](NC(=O)c1cncc([N+](=O)[O-])c1)C(=O)Nc1cccn(CC(=O)NCC23CC4CC(CC(C4)C2)C3)c1=O [Compound I-65, (S)-N1-(1-(2-(1-adamantylmethylamino)-2-oxoethyl)-2-oxo-1,2-dihydropyridin-3-yl)-N6-ethyl-2-(5-nitronicotinamido)-5-oxohexanediamide] | < 150 | 1 to 3 | 1 to 10
2 | CCNC(=O)C(=O)CC[C@H](NC(=O)c1cc(Cl)c(Cl)s1)C(=O)Nc1cccn(CC(=O)NC2C3CC4CC(C3)CC2C4)c1=O (stereo partly drawn) [Compound I-54, (S)-2-(4,5-dichlorothiophene-2-carboxamido)-N6-ethyl-N1-(1-(2-(2-adamantylamino)-2-oxoethyl)-2-oxo-1,2-dihydropyridin-3-yl)-5-oxohexanediamide] | < 150 | 3 to 5 | 1 to 10
3 | CCNC(=O)C(=O)CC[C@H](NC(=O)c1cncn1C)C(=O)Nc1cccn(CC(=O)NC23CC4CC(C2)CC(C(=O)OC)(C4)C3)c1=O [Compound I-11, (S)-N1-ethyl-N6-(1-(2-(3-methyladamantane-3-carboxylate-1-amino)-2-oxoethyl)-2-oxo-1,2-dihydropyridin-3-yl)-5-(1-methyl-1H-imidazole-5-carboxamido)-2-oxohexanediamide] | 150 to 600 | < 1 | < 1
4 | CCNC(=O)C(=O)CC[C@H](NC(=O)c1oc2ccccc2c1C)C(=O)Nc1cccn(CC(=O)N[C@@H]2C[C@H]3CC[C@@H]2C3)c1=O [Compound I-70, (S)-N1-(1-(2-((1R,2R,4S)-bicyclo[2.2.1]heptan-2-ylamino)-2-oxoethyl)-2-oxo-1,2-dihydropyridin-3-yl)-N6-ethyl-2-(3-methylbenzofuran-2-carboxamido)-5-oxohexanediamide] | < 150 | 1 to 3 | 1 to 10
5 | CCNC(=O)C(=O)CC[C@H](NC(=O)c1ccncc1)C(=O)Nc1cccn(CC(=O)NC23CCC(CC2)C3)c1=O [Compound I-71, (S)-N1-(1-(2-((1s,4R)-bicyclo[2.2.1]heptan-1-ylamino)-2-oxoethyl)-2-oxo-1,2-dihydropyridin-3-yl)-N6-ethyl-2-(isonicotinamido)-5-oxohexanediamide] | 150 to 600 | < 1 | < 1
6 | CCNC(=O)C(=O)CC[C@H](NC(=O)c1cncn1C)C(=O)Nc1cccn(CC(=O)NC[C@@H]2CC[C@H]3C[C@@H]2C3(C)C)c1=O [Compound I-13, (S)-N1-(1-(2-(((1S,2R,5S)-6,6-dimethylbicyclo[3.1.1]heptan-2-yl)methylamino)-2-oxoethyl)-2-oxo-1,2-dihydropyridin-3-yl)-N6-ethyl-2-(1-methyl-1H-imidazole-5-carboxamido)-5-oxohexanediamide] | 600 to 3500 | 1 to 3 | < 1
7 | CCNC(=O)C(=O)CC[C@H](NC(=O)c1cc2c(F)c(F)ccc2[nH]1)C(=O)Nc1cccn(CC(=O)NC2C3CC4CC(C3)CC2C4)c1=O (stereo partly drawn) [Compound I-36, (S)-2-(4,5-difluoro-1H-indole-2-carboxamido)-N6-ethyl-N1-(1-(2-(2-adamantylamino)-2-oxoethyl)-2-oxo-1,2-dihydropyridin-3-yl)-5-oxohexanediamide] | < 150 | 3 to 5 | 1 to 10
8 | CCNC(=O)C(=O)CC[C@H](NC(=O)c1cn(C2CCC2)cn1)C(=O)Nc1cccn(CC(=O)NC23CC4CC(CC(CC)(C4)C2)C3)c1=O [Compound I-20, (S)-2-(1-cyclobutyl-1H-imidazole-4-carboxamido)-N6-ethyl-N1-(1-(2-(3-ethyladamantane-1-amino)-2-oxoethyl)-2-oxo-1,2-dihydropyridin-3-yl)-5-oxohexanediamide] | 600 to 3500 | 1 to 3 | < 1
9 | CCNC(=O)C(=O)CC[C@H](NC(=O)c1cnc(C)n1C)C(=O)Nc1cccn(CC(=O)NC23CC4CC(CC(C)(C4)C2)C3)c1=O [Compound I-27, (S)-2-(1,2-dimethyl-1H-imidazole-5-carboxamido)-N6-ethyl-N1-(1-(2-(3-methyladamantane-1-amino)-2-oxoethyl)-2-oxo-1,2-dihydropyridin-3-yl)-5-oxohexanediamide] | 600 to 3500 | 1 to 3 | < 1
10 | CCNC(=O)C(=O)CC[C@H](NC(=O)c1sc(Br)cc1C)C(=O)Nc1cccn(CC(=O)NC2C3CC4CC(C3)CC2C4)c1=O (stereo partly drawn) [Compound I-43, (S)-2-(5-bromo-3-methylthiophene-2-carboxamido)-N6-ethyl-N1-(1-(2-(2-adamantylamino)-2-oxoethyl)-2-oxo-1,2-dihydropyridin-3-yl)-5-oxohexanediamide] | < 150 | 3 to 5 | 1 to 10

Second part, the molecule after the results:

Row | IC50 [1] [nM] | logD [2] | Papp [3] [×10⁻⁶ cm/s] | Compound
11 | 150 to 600 | < 1 | < 1 | CCNC(=O)C(=O)CC[C@H](NC(=O)c1cn[nH]n1)C(=O)Nc1cccn(CC(=O)NC2CC3CCC2CC3)c1=O (stereo partly drawn) [Compound I-74, (2S)-N1-(1-(2-(bicyclo[2.2.2]octan-2-ylamino)-2-oxoethyl)-2-oxo-1,2-dihydropyridin-3-yl)-N6-ethyl-5-oxo-2-(2H-1,2,3-triazole-4-carboxamido)hexanediamide]
12 | 600 to 3500 | 3 to 5 | < 1 | CCNC(=O)C(=O)CC[C@H](NC(=O)c1cnc2ccc(OC(F)(F)F)cc2c1O)C(=O)Nc1cccn(CC(=O)N[C@@H]2C[C@@H]3CC[C@H]2C3)c1=O [Compound I-99, (S)-N1-(1-(2-((1S,2R,4R)-bicyclo[2.2.1]heptan-2-ylamino)-2-oxoethyl)-2-oxo-1,2-dihydropyridin-3-yl)-N6-ethyl-2-(4-hydroxy-6-(trifluoromethoxy)quinoline-3-carboxamido)-5-oxohexanediamide]
13 | 150 to 600 | 1 to 3 | < 1 | CCNC(=O)C(=O)CC[C@H](NC(=O)c1snnc1CO)C(=O)Nc1cccn(CC2C3CC4CC(C3)CC2C4)c1=O (stereo partly drawn) [Compound I-84, (S)-N1-(1-(2-adamantylmethyl)-2-oxo-1,2-dihydropyridin-3-yl)-N6-ethyl-2-(4-(hydroxymethyl)-1,2,3-thiadiazole-5-carboxamido)-5-oxohexanediamide]
14 | 600 to 3500 | < 1 | < 1 | CCNC(=O)C(=O)CC[C@H](NC(=O)c1cc2ccccc2nn1)C(=O)Nc1cccn(CC(=O)NC23CC(C2)C3)c1=O [Compound I-100, (S)-N1-(1-(2-(bicyclo[1.1.1]pentan-1-ylamino)-2-oxoethyl)-2-oxo-1,2-dihydropyridin-3-yl)-2-(cinnoline-3-carboxamido)-N6-ethyl-5-oxohexanediamide]
15 | 600 to 3500 | 1 to 3 | < 1 | CCNC(=O)C(=O)CC[C@H](NC(=O)c1cn2ccsc2n1)C(=O)Nc1cccn(CC(=O)N[C@@H]2C[C@@H]3CC[C@H]2C3)c1=O [Compound I-98, (S)-N1-(1-(2-((1S,2R,4R)-bicyclo[2.2.1]heptan-2-ylamino)-2-oxoethyl)-2-oxo-1,2-dihydropyridin-3-yl)-N6-ethyl-2-(imidazo[2,1-b]thiazole-6-carboxamido)-5-oxohexanediamide]
16 | 150 to 600 | < 1 | 1 to 10 | CCNC(=O)C(=O)CC[C@H](NC(=O)c1c(C)noc1C)C(=O)Nc1cccn(CC(=O)NC2C3CCCC2CC3)c1=O (stereo partly drawn) [Compound I-91, (2S)-N1-(1-(2-(bicyclo[3.2.1]octan-8-ylamino)-2-oxoethyl)-2-oxo-1,2-dihydropyridin-3-yl)-2-(3,5-dimethylisoxazole-4-carboxamido)-N6-ethyl-5-oxohexanediamide]
